Data from US20230085307A1, “PYRIDAZINONE COMPOUND AND HERBICIDE” (NISSAN CHEMICAL CORPORATION, priority 2019, published 2023).

Key:
persian speedwell [1] = assay: Test Example 5: herbicidal effect by foliage application, plastic box (Table 20, symbol R); assay type: in vivo, Persian speedwell (Veronica persica); settings: for Herbicidal effect by foliage application, R: persian speedwell: amount of applied herbicide 320 g/ha, foliage application after 14-day growth, evaluated three weeks after application; for R (persian speedwell) herbicidal effect grade: foliage application, 320 g/ha, evaluated 3 weeks after application
How it was run: (§1)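 Plants were sown into sterilized diluvial soil under about 1.5 cm cover and kept in a greenhouse at 25° C. to 30° C. Fourteen days on, foliage received an even spray of the diluted emulsion. Herbicidal or crop effect was judged three weeks afterwards.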

oval-leafed pondweed = assay: Test Example 1: herbicidal activity, application before weed generation under submerged conditions (Table 16, symbol C); assay type: in vivo, oval-leafed pondweed (Monochoria vaginalis); settings: amount of applied herbicide 320 g/ha
How it was run: (§2)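 Emulsion formulation, water-diluted to set dose, was put onto the flooded surface (4 cm depth, alluvial soil) the same day weeds were sown and 2.5-leaf rice transplanted. After 3 weeks at 25-30 °C under glass, each species was rated 0 (≤5% kill) to 5 (≥90% kill).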

rice flat sedge = assay: Test Example 3: herbicidal effect by foliage application, Wagner pot (Table 18, symbol E); assay type: in vivo, rice flat sedge (Cyperus iria); settings: for herbicidal effect on rice flat sedge (E): 320 g/ha; for Herbicidal effect on E (rice flat sedge), foliage application: amount of applied herbicide 320 g/ha
How it was run: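 Plants were sown in alluvial soil held under 0.1–0.5 cm standing water and grown 14 days in a greenhouse at 25–30 °C. An emulsifiable formulation, water-diluted to the set dose, was then sprayed onto the foliage, and effects were scored three weeks later using previously defined criteria.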

barnyard grass = assay: Test Example 4: herbicidal effect by soil treatment (Table 19, symbol H); assay type: in vivo, barnyard grass (Echinochloa crus-galli); settings: amount of applied herbicide 320 g/ha
How it was run: (§3)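 In this soil treatment, the formulated compound reached the seeds only through the soil: seeds were buried about 1.5 cm deep in sterilized diluvial soil, then the diluted emulsion was sprayed over the surface. After three weeks at 25° C. to 30° C. in a greenhouse, effects were graded on criteria from an earlier test.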

lambsquarters = assay: Test Example 4: herbicidal effect by soil treatment (Table 19, symbol O); assay type: in vivo, lambsquarters (Chenopodium album); settings: amount of applied herbicide 320 g/ha
How it was run: as §3

blackgrass [2] = assay: Test Example 4: herbicidal effect by soil treatment (Table 19, symbol J); assay type: in vivo, blackgrass (Alopecurus myosuroides); settings: amount of applied herbicide 320 g/ha
How it was run: as §3

Italian ryegrass [3] = assay: Test Example 4: herbicidal effect by soil treatment (Table 19, symbol K); assay type: in vivo, Italian ryegrass (Lolium multiflorum); settings: amount of applied herbicide 320 g/ha
How it was run: as §3

persian speedwell [4] = assay: Test Example 4: herbicidal effect by soil treatment (Table 19, symbol R); assay type: in vivo, Persian speedwell (Veronica persica); settings: amount of applied herbicide 320 g/ha
How it was run: as §3

wild oat = assay: Test Example 4: herbicidal effect by soil treatment (Table 19, symbol I); assay type: in vivo, wild oat (Avena fatua); settings: amount of applied herbicide 320 g/ha
How it was run: as §3

chickweed [5] = assay: Test Example 5: herbicidal effect by foliage application, plastic box (Table 20, symbol P); assay type: in vivo, common chickweed (Stellaria media); settings: for Herbicidal effect by foliage application, P: chickweed: amount of applied herbicide 320 g/ha, foliage application after 14-day growth, evaluated three weeks after application; for P (chickweed) herbicidal effect grade: foliage application, 320 g/ha, evaluated 3 weeks after application
How it was run: as §1

Japanese bulrush [6] = assay: Test Example 2: herbicidal activity, application during weed generation under submerged conditions (Table 17, symbol B); assay type: in vivo, Japanese bulrush (Schoenoplectus juncoides); settings: AAH 320 g/ha; application during weed generation, submerged conditions
How it was run: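 Alluvial soil in Wagner pots was flooded to 4 cm depth and sown with the three weeds together; pots were kept in a greenhouse at 25° C. to 30° C. At the one to two leaf stage, an emulsion formulation diluted in water to a set rate went onto the water surface; scored three weeks later.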

chickweed [7] = assay: Test Example 4: herbicidal effect by soil treatment (Table 19, symbol P); assay type: in vivo, common chickweed (Stellaria media); settings: amount of applied herbicide 320 g/ha
How it was run: as §3

blackgrass [8] = assay: Test Example 5: herbicidal effect by foliage application, plastic box (Table 20, symbol J); assay type: in vivo, blackgrass (Alopecurus myosuroides); settings: for Herbicidal effect by foliage application, J: blackgrass: amount of applied herbicide 320 g/ha, foliage application after 14-day growth, evaluated three weeks after application; for J (blackgrass) herbicidal effect grade: foliage application, 320 g/ha, evaluated 3 weeks after application
How it was run: as §1

Japanese bulrush [9] = assay: Test Example 1: herbicidal activity, application before weed generation under submerged conditions (Table 16, symbol B); assay type: in vivo, Japanese bulrush (Schoenoplectus juncoides); settings: amount of applied herbicide 320 g/ha
How it was run: as §2

southern crabgrass [10] = assay: Test Example 4: herbicidal effect by soil treatment (Table 19, symbol F); assay type: in vivo, southern crabgrass (Digitaria ciliaris); settings: amount of applied herbicide 320 g/ha
How it was run: as §3

Italian ryegrass [11] = assay: Test Example 5: herbicidal effect by foliage application, plastic box (Table 20, symbol K); assay type: in vivo, Italian ryegrass (Lolium multiflorum); settings: for Herbicidal effect by foliage application, K: Italian ryegrass: amount of applied herbicide 320 g/ha, foliage application after 14-day growth, evaluated three weeks after application; for K (Italian ryegrass) herbicidal effect grade: foliage application, 320 g/ha, evaluated 3 weeks after application
How it was run: as §1

southern crabgrass [12] = assay: Test Example 5: herbicidal effect by foliage application, plastic box (Table 20, symbol F); assay type: in vivo, southern crabgrass (Digitaria ciliaris); settings: for Herbicidal effect by foliage application, F: southern crabgrass: amount of applied herbicide 320 g/ha, foliage application after 14-day growth, evaluated three weeks after application; for F (southern crabgrass) herbicidal effect grade: foliage application, 320 g/ha, evaluated 3 weeks after application
How it was run: as §1

| Structure (SMILES) | Herbicidal effect by foliage application, R: persian speedwell (persian speedwell [1]) | Herbicidal effect, C: oval-leafed pondweed (oval-leafed pondweed) | herbicidal effect on rice flat sedge (E) (rice flat sedge) | H: barnyard grass, herbicidal effect grade (barnyard grass) | O: lambsquarters, herbicidal effect grade (lambsquarters) | J: blackgrass, herbicidal effect grade (blackgrass [2]) | K: Italian ryegrass, herbicidal effect grade (Italian ryegrass [3]) | R: persian speedwell, herbicidal effect grade (persian speedwell [4]) | I: wild oat, herbicidal effect grade (wild oat) | Herbicidal effect by foliage application, P: chickweed (chickweed [5]) | herbicidal effect rating, B: Japanese bulrush (Japanese bulrush [6]) | P: chickweed, herbicidal effect grade (chickweed [7]) | Herbicidal effect by foliage application, J: blackgrass (blackgrass [8]) | Herbicidal effect, B: Japanese bulrush (Japanese bulrush [9]) | F: southern crabgrass, herbicidal effect grade (southern crabgrass [10]) | Herbicidal effect by foliage application, K: Italian ryegrass (Italian ryegrass [11]) | Herbicidal effect by foliage application, F: southern crabgrass (southern crabgrass [12]) | R (persian speedwell) herbicidal effect grade (persian speedwell [1]) | Herbicidal effect on E (rice flat sedge), foliage application (rice flat sedge) | P (chickweed) herbicidal effect grade (chickweed [5]) | also measured |
| --- | --- | --- | --- | --- | --- | --- | --- | --- | --- | --- | --- | --- | --- | --- | --- | --- | --- | --- | --- | --- | --- |
| CCCC(=O)Oc1c(C)nn(C)c(=O)c1-c1c(-c2ccccc2OC)sc2cc(F)c(F)cc12 [5-012] | 3 (Herbicidal rate of 40% or more and less than 70%) | 2 (Herbicidal rate of 20% or more and less than 40%) | 3 (Herbicidal rate of 40% or more and less than 70%) | 1 (Herbicidal rate of 5% or more and less than 20%) | 5 (Herbicidal rate of 90% or more (almost completely withered)) | 3 (Herbicidal rate of 40% or more and less than 70%) | 0 (Herbicidal rate of 5% or less (almost no effect)) | 3 (Herbicidal rate of 40% or more and less than 70%) | 3 (Herbicidal rate of 40% or more and less than 70%) | 5 (Herbicidal rate of 90% or more (almost completely withered)) | 2 (Herbicidal rate of 20% or more and less than 40%) | 3 (Herbicidal rate of 40% or more and less than 70%) | 4 (Herbicidal rate of 70% or more and less than 90%) | 3 (Herbicidal rate of 40% or more and less than 70%) | 3 (Herbicidal rate of 40% or more and less than 70%) | 0 (Herbicidal rate of 5% or less (almost no effect)) | 0 (Herbicidal rate of 5% or less (almost no effect)) |  |  |  |  |
| COc1ccc(-c2sc3cc(Cl)c(Cl)cc3c2-c2c(O)c(C)nn(C)c2=O)cc1 [5-043] | 5 (Herbicidal rate of 90% or more (almost completely withered)) | 0 (Herbicidal rate of 5% or less (almost no effect)) | 4 (Herbicidal rate of 70% or more and less than 90%) | 0 (Herbicidal rate of 5% or less (almost no effect)) | 0 (Herbicidal rate of 5% or less (almost no effect)) | 0 (Herbicidal rate of 5% or less (almost no effect)) | 0 (Herbicidal rate of 5% or less (almost no effect)) | 0 (Herbicidal rate of 5% or less (almost no effect)) | 0 (Herbicidal rate of 5% or less (almost no effect)) | 5 (Herbicidal rate of 90% or more (almost completely withered)) | 0 (Herbicidal rate of 5% or less (almost no effect)) | 3 (Herbicidal rate of 40% or more and less than 70%) | 0 (Herbicidal rate of 5% or less (almost no effect)) | 2 (Herbicidal rate of 20% or more and less than 40%) | 0 (Herbicidal rate of 5% or less (almost no effect)) | 0 (Herbicidal rate of 5% or less (almost no effect)) | 0 (Herbicidal rate of 5% or less (almost no effect)) |  |  |  |  |
| COCCOc1ccc(-c2oc3ccc(F)cc3c2-c2c(O)c(C)nn(C)c2=O)cc1 [9-045] |  | 5 (Herbicidal rate of 90% or more (almost completely withered)) |  | 5 (Herbicidal rate of 90% or more (almost completely withered)) | 5 (Herbicidal rate of 90% or more (almost completely withered)) | 5 (Herbicidal rate of 90% or more (almost completely withered)) | 5 (Herbicidal rate of 90% or more (almost completely withered)) | 4 (Herbicidal rate of 70% or more and less than 90%) | 0 (Herbicidal rate of 5% or less (almost no effect)) |  | 3 (Herbicidal rate of 40% or more and less than 70%) | 1 (Herbicidal rate of 5% or more and less than 20%) |  | 5 (Herbicidal rate of 90% or more (almost completely withered)) | 5 (Herbicidal rate of 90% or more (almost completely withered)) |  |  | 5 (Herbicidal rate of 90% or more (almost completely withered)) | 5 (Herbicidal rate of 90% or more (almost completely withered)) | 5 (Herbicidal rate of 90% or more (almost completely withered)) | J (blackgrass) herbicidal effect grade (blackgrass [8]): 5 (Herbicidal rate of 90% or more (almost completely withered)); K (Italian ryegrass) herbicidal effect grade (Italian ryegrass [11]): 5 (Herbicidal rate of 90% or more (almost completely withered)); F (southern crabgrass) herbicidal effect grade (southern crabgrass [12]): 5 (Herbicidal rate of 90% or more (almost completely withered)) |
| CCCOc1ccc(-c2oc3ccc(C)cc3c2-c2c(O)c(C)nn(C)c2=O)cc1 [9-049] |  | 5 (Herbicidal rate of 90% or more (almost completely withered)) |  | 4 (Herbicidal rate of 70% or more and less than 90%) | 4 (Herbicidal rate of 70% or more and less than 90%) | 0 (Herbicidal rate of 5% or less (almost no effect)) | 5 (Herbicidal rate of 90% or more (almost completely withered)) | 5 (Herbicidal rate of 90% or more (almost completely withered)) | 0 (Herbicidal rate of 5% or less (almost no effect)) |  | 4 (Herbicidal rate of 70% or more and less than 90%) | 4 (Herbicidal rate of 70% or more and less than 90%) |  | 5 (Herbicidal rate of 90% or more (almost completely withered)) | 4 (Herbicidal rate of 70% or more and less than 90%) |  |  | 5 (Herbicidal rate of 90% or more (almost completely withered)) | 3 (Herbicidal rate of 40% or more and less than 70%) | 5 (Herbicidal rate of 90% or more (almost completely withered)) | J (blackgrass) herbicidal effect grade (blackgrass [8]): 4 (Herbicidal rate of 70% or more and less than 90%); K (Italian ryegrass) herbicidal effect grade (Italian ryegrass [11]): 5 (Herbicidal rate of 90% or more (almost completely withered)); F (southern crabgrass) herbicidal effect grade (southern crabgrass [12]): 5 (Herbicidal rate of 90% or more (almost completely withered)) |
